Experiment [1] has as its target T1, Sirt1 (Homo sapiens, UniProt Q96EB6).
T1 construct: made in house; host or cells: E. coli BL21 Star (DE3)
T1 sequence (Q96EB6 134-747): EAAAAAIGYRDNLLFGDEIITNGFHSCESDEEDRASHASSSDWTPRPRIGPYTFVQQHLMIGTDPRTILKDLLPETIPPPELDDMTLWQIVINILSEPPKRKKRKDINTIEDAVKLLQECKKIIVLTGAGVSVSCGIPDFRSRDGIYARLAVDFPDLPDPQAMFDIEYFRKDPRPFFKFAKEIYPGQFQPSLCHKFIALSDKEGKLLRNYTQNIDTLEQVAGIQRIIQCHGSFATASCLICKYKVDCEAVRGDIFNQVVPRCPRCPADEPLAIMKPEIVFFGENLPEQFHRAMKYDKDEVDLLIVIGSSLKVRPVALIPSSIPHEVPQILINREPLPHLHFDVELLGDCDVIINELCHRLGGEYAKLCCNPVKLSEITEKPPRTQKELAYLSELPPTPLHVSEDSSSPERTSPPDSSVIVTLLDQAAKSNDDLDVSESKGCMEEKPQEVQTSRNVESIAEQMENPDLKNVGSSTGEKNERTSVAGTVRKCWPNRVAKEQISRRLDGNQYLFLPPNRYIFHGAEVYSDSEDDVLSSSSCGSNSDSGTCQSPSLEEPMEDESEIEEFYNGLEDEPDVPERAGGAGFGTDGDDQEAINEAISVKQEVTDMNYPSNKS
As to the kind of experiment: Homogeneous ZMAL-based fluorescence assay, Sirt1. It is filed as biochemical. How it is done: (§1) Recombinant human Sirt5_37−310 was purchased readily in Tris Buffer [25 mM Tris, 100 mM NaCl, 5 mM DTT, 10% glycerol (v/v)] from Enzo Life Sciences (NY, USA). Human Sirt3_118−395 was expressed and purified as described previously ([54]). For expression of human Sirt1_134−747 and Sirt2_56−356 chemically competent cells of E. coli BL21 Star (DE3) were transformed with the expression vectors pET30S-hSirt1_134−747 or pET30S-hSirt2_56−356. Bacteria were grown at 37°C in 2×YT medium supplemented with 50 μg·mL^−1 of kanamycin to an OD600 of 0.6. Then isopropyl-β-D-1-thiogalactopyranoside (IPTG) was added to a final concentration of 1 mM to induce gene expression. After further cultivation at 20°C for 12 h, the cells were harvested by centrifugation for 15 min at 5,000 g. The cells were resuspended in lysis buffer [100 mM Tris/HCl buffer at pH 8.0, 150 mM NaCl and 10% (v/v) glycerol] and disrupted by ultrasonication (Branson Digital Sonifier 250) at 70% amplitude for 10 min (3 s working, 10 s pause). The crude extract was cleared by centrifugation at 100,000 g for 1 h, and the supernatant was loaded onto a Strep-Tactin Superflow cartridge (5 ml bed volume, IBA Lifescience, Germany). Target proteins were eluted with lysis buffer containing 5 mM D-Desthiobiotin (IBA Lifescience, Germany) and further separated by size-exclusion chromatography (Superdex S200 26/60, GE Healthcare, IL, USA) equilibrated in Tris/HCl buffer (20 mM, 150 mM NaCl, pH 8.0). Pure protein was concentrated by ultrafiltration, flash-frozen in liquid nitrogen and stored at −80°C until further use. Identity as well as purity were verified by SDS-PAGE ([55]) and protein concentration was determined by the bicinchoninic acid (BCA) method, using bovine serum albumin (BSA) as a standard ([56]). Deacetylase activity was confirmed to be NAD^+-dependent and could be inhibited with the physiological sirtuin inhibitor nicotinamide.
(§2) All compounds were tested in the trypsin-coupled high-throughput ZMAL-assay in black 96-well plates (OptiPlateTM−96F, black, 96 well, Pinch bar design, PerkinElmer, USA), using ZMAL (Z-Lys(acetyl)-AMC) as a substrate ([57]). Sirt1_134−747, Sirt2_56−356, and Sirt3_118−395 were mixed with 5 μL substrate (10.5 μM final assay concentration, diluted from a […] stock in DMSO) and 3 μL Inhibitor in DMSO at various concentrations or DMSO as a control [final DMSO concentration 5% (v/v)]. The mixture was supplemented with assay buffer (50 mM Tris/HCl, 137 mM NaCl, 2.7 mM KCl, 1 mM MgCL2, pH 8.0) to a total volume of 55 μL. Enzyme concentration was adjusted to get a final conversion of 20–30%. Addition of 5 μL NAD^+ (6 mM in assay buffer, final assay concentration of 500 μM) initiated the catalytic reaction and the plates were incubated at 37°C for 4 h with agitation at 140 rpm. The catalytic reaction was stopped by addition of 60 μL stop solution [50 mM Tris, 100 mM NaCl, 6.7% (V/V) DMSO, 5.5 U/μL trypsin, 8 μM nicotinamide, pH 8.0]. The plate was again incubated at 37°C and 140 rpm for 20 min to release free AMC from the deacetylated substrate by trypsin digestion. Afterwards, fluorescence intensity was measured in a microplate reader (λEx = 390 nm, λEm = 460 nm, BMG POLARstar Optima, BMG Labtech, Germany). An enzyme-free blank control and a 100% conversion control containing AMC instead of ZMAL were measured in addition. Inhibition was calculated in % in relation to a DMSO control after blank signal subtraction and IC50 values were determined using a non-linear regression to fit the dose-response curve with OriginPro 9G (OriginLab, USA). Pre-tests as well as IC50 determination was carried out at least twice in duplicates.

In a further experiment the target is T2, human Sirt2 (Homo sapiens, UniProt Q8IXJ6).
T2 construct: made in house; host or cells: E. coli BL21 Star (DE3)
T2 sequence (Q8IXJ6 56-356): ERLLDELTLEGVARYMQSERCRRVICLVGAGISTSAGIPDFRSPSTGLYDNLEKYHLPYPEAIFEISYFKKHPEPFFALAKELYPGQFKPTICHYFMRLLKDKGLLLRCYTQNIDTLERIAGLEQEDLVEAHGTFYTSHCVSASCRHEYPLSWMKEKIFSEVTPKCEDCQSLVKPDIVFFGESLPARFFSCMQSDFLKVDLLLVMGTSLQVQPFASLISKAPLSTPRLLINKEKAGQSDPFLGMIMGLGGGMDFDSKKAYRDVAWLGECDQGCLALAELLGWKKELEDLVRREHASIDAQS
As to the kind of experiment: Homogeneous ZMAL-based fluorescence assay, Sirt2. Format: biochemical. The procedure: as §1, §2

In another experiment the target is T3, human Sirt3 (Homo sapiens, UniProt Q9NTG7).
T3 construct: Human Sirt3_118−395 was expressed and purified as described previously; made in house
T3 sequence (Q9NTG7 118-395): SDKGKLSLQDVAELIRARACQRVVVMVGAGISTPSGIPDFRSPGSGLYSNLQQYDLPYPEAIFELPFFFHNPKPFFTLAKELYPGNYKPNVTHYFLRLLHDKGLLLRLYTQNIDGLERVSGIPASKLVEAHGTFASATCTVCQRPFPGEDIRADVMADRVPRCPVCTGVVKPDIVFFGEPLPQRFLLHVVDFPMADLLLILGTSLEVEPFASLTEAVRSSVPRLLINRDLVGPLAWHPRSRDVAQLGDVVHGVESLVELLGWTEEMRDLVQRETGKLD
In words: Homogeneous ZMAL-based fluorescence assay, Sirt3. It is filed as biochemical. The procedure:
as §1, §2

For experiment [2], the target named is T1, Sirt1. As to the kind of experiment: Fluorescent thermal shift assay (FTSA), Sirt1. Format: binding. The procedure: In a 96-well plate (Hard-Shell® PCR-plates, 96-well, thin-wall, BioRAD, USA) 14 μL Sirt1_134−747 in assay buffer (0.3 mg/mL final assay concentration, 50 mM Tris/HCl, 137 mM NaCl, 2.7 mM KCl, 1 mM MgCL2, pH 8.0) were mixed with 1 μL inhibitor in DMSO (100 μM) or DMSO [final assay concentration 5% (v/v)] as a control and 5 μL SyproOrange (1:100 in assay buffer). The fluorescence intensity was monitored during a constant increase of temperature from 20 to 95°C, 1 K per 20 s, using a real-time-PCR-machine (C1000 TouchTM Thermal Cycler, CFX96TM Real-Time System, BioRAD, USA). Melting temperatures were calculated via GraphPad Prism according to a published procedure ([60]).

Experiment [3] concerns γH2AX/H2AX levels in MEF cells. In words: γH2AX level determination by western blot. It is filed as cell-based, mouse. The note with it: 48 h, EX-527 10 μM, S1th 10 30 μM, S1th 12 20 μM, S1th 13 12 μM, SirReal2 30 μM. The procedure: Sirt1 WT and KO MEFS cells were treated with 10 μM EX-527, 12 μM S1th 13 (6), 20 μM S1th 12 (5), 30 μM S1th 10 (7) and 30 μM SirReal2 [Sirt2 inhibitor, synthesized according to ([62])] for 48 h. Oxidative stress was induced using 10 μM Camptothecin 2 h. Whole-cell extracts were performed according to the Dignam protocol ([63]). Primary antibodies used for the western blot were anti-H2AX and anti-γH2AX (ab11175 and ab2893 resp., Abcam, UK). Densiometric analysis of the western blots was performed with Quantity One software (Bio-Rad Laboratories, Inc., USA).

[4] abbreviates: 2nd round of in vitro screening.

“And” between values parts separate entries of the source, which are not always exact repeats. Equal values may be shown once. “Also recorded” adds a separate entry of the source.

The IC50 is the concentration that inhibits the measured activity by half. A lower IC50 goes with higher potency. What is called inhibition is the change of the read-out against control, counted positive when it falls. Turning to `N#CSc1cccc(NC(=O)c2ccc3c(c2)OCCO3)c1` [S1th 7], the IC50 against Sirt1 [1] (3rd round) was 6.34 µM and 6.3 µM. The inhibition at 50 µM on human Sirt2 (3rd round) and on human Sirt3 (3rd round) was below 10% throughout.
As to `CCCc1cc(=O)[nH]c(SCC(=O)Nc2cccc(SC#N)c2)n1` [S1th 1], the inhibition at 50 µM is 82% at Sirt1 [1] (50 µM, primary screen); 23% on human Sirt2 (setting [4]); below 10% on human Sirt3 (setting [4]). Also, half-maximal inhibition against Sirt1 [1] (setting [4]) (IC50) required 13 ± 0.6 µM.
For the compound `O=C(Nc1ccccc1-c1cn2c(CN3CCNCC3)csc2n1)c1cnc2ccccc2n1` [SRT1720], at Sirt1 [2], the “effect on Tm of Sirt1 (in words)” value was “barely effected; also recorded: very small shift or no shift at all”.
On to `Cc1cc(C)nc(SCC(=O)Nc2ncc(Cc3cccc4ccccc34)s2)n1` [SirReal2, reference compound], for which, in experiment [3], the “γH2AX/H2AX levels without Camptothecin” value was “does not affect”.
For `O=c1c2cccnc2sn1Cc1ccc(C(F)(F)F)cc1` [PU141], at Sirt1 [2], the “effect on Tm of Sirt1 (in words)” value was “no reasonable melting curve is obtained”.
For the compound adenosine diphosphate ribose [ADPR], on Sirt1 [2], the “effect on Tm of Sirt1 (in words)” value is recorded as “strongly increased” and the “stabilization (increase of Tm) of Sirt1” value was “up to 4 K”.
`NC(=O)c1ccc[n+]([C@@H]2O[C@H](COP(=O)([O-])OP(=O)(O)OC[C@H]3O[C@@H](n4cnc5c(N)ncnc54)[C@H](O)[C@@H]3O)[C@@H](O)[C@H]2O)c1` [NAD^+]: the “effect on Tm of Sirt1 (in words)” value on Sirt1 [2] is “slightly increased”.

(Values after article PMC7203344, “Sirtuin 1 Inhibiting Thiocyanates (S1th)—A New Class of Isotype Selective Inhibitors of NAD^+ Dependent Lysine Deacetylases” (Frontiers in Oncology, 2020).)
